The target in one experiment is PIK3CB (UniProt P42338). Nature of the experiment: PIK3-beta Kinase Inhibition.
In the next experiment the target is PIK3CD (UniProt O00329). The experiment in a line: PIK3-delta Kinase Inhibition.
The next experiment deals with PIK3CG (UniProt P48736). The experiment in a line: PIK3-gamma Kinase Inhibition.
The target of another experiment is PIK3CA (UniProt P42336). The experiment in a line: PIK3-alpha Kinase Inhibition.

SMILES strings stand for the structures. Where only a bound is given, the exact number is not on record here.

Chain of PIK3CA (P42336 whole entry, looked up): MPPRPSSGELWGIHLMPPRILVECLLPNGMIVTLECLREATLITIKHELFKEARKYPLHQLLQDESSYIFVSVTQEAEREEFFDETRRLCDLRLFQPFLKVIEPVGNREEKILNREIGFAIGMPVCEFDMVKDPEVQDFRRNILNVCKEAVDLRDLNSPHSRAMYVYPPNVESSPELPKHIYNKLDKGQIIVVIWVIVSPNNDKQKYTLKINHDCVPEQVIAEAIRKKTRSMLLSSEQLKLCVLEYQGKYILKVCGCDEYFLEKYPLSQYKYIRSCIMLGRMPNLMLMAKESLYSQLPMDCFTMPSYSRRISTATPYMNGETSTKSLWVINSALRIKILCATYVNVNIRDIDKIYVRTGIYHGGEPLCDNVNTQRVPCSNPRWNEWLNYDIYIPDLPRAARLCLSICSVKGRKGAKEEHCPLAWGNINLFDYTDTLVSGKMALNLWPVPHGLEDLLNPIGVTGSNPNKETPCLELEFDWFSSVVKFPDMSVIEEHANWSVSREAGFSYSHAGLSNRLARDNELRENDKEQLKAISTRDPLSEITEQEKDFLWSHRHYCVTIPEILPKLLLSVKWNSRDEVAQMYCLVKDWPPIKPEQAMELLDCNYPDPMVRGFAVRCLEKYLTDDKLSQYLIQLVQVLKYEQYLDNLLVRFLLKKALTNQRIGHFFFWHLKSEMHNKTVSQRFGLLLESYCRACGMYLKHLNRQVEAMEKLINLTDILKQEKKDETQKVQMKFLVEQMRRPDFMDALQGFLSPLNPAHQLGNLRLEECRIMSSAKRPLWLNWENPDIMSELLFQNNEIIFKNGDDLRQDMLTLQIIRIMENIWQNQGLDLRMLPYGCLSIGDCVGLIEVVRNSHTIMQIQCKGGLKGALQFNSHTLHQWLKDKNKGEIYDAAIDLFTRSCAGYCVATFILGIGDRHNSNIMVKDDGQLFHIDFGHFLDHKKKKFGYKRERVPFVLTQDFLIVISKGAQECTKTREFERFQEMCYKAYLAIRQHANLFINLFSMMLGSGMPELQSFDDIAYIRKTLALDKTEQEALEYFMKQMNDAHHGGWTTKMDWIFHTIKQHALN
Chain of PIK3CB (P42338 whole entry, looked up): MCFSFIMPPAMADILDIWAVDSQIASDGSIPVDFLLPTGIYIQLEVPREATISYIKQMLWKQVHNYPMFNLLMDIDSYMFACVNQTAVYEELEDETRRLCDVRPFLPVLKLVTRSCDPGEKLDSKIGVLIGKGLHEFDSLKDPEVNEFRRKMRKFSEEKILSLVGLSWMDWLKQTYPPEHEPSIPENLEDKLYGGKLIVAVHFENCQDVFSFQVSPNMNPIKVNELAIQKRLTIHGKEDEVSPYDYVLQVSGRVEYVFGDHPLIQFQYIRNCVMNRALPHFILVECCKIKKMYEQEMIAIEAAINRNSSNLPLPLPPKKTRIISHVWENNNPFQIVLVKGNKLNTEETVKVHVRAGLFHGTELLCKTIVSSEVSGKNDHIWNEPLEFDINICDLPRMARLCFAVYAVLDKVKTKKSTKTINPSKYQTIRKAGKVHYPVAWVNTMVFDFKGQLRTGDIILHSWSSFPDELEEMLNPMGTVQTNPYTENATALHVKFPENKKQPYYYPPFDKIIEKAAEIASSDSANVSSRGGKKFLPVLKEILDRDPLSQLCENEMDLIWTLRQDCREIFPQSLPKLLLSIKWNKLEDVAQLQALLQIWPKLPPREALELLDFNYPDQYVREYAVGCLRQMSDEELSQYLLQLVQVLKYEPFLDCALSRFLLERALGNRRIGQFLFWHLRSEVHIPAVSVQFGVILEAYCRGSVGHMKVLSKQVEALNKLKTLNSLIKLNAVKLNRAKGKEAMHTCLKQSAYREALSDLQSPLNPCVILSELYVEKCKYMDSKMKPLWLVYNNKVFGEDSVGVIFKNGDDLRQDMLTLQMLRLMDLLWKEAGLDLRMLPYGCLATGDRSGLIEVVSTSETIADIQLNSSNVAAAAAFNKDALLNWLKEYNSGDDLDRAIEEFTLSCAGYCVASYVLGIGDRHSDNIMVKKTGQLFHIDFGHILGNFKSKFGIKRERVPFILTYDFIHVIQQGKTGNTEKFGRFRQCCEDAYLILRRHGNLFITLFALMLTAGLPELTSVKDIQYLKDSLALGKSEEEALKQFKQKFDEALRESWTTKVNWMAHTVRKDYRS
Chain of PIK3CG (P48736 whole entry, looked up): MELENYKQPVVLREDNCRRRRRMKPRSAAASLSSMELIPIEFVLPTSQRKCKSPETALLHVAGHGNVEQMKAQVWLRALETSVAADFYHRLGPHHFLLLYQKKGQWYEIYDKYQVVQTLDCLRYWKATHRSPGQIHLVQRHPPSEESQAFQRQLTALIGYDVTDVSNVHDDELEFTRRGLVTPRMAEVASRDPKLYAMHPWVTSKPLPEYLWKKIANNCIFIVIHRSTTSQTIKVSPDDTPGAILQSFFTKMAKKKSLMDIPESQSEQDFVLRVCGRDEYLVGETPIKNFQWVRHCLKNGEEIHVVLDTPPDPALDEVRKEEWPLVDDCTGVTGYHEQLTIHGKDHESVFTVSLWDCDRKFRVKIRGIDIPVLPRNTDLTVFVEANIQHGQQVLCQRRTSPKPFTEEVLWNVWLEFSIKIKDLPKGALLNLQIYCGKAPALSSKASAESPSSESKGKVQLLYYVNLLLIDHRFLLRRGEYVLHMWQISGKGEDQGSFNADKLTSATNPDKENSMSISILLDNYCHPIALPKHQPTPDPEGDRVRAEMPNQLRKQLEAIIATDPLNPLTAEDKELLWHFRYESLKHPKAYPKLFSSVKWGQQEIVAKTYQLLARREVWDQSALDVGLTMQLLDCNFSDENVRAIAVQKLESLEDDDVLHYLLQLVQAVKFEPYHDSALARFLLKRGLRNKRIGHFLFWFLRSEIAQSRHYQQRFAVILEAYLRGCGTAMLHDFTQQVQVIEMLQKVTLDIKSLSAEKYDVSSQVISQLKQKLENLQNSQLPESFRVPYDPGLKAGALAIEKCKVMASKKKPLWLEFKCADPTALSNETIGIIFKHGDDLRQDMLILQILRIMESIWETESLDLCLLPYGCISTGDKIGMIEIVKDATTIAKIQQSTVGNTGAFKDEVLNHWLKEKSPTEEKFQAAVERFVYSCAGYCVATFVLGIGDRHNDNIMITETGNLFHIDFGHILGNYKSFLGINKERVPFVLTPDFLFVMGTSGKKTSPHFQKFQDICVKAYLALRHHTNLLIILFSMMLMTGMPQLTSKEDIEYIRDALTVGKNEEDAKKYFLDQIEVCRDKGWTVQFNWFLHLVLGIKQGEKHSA
Chain of PIK3CD (O00329 whole entry, looked up): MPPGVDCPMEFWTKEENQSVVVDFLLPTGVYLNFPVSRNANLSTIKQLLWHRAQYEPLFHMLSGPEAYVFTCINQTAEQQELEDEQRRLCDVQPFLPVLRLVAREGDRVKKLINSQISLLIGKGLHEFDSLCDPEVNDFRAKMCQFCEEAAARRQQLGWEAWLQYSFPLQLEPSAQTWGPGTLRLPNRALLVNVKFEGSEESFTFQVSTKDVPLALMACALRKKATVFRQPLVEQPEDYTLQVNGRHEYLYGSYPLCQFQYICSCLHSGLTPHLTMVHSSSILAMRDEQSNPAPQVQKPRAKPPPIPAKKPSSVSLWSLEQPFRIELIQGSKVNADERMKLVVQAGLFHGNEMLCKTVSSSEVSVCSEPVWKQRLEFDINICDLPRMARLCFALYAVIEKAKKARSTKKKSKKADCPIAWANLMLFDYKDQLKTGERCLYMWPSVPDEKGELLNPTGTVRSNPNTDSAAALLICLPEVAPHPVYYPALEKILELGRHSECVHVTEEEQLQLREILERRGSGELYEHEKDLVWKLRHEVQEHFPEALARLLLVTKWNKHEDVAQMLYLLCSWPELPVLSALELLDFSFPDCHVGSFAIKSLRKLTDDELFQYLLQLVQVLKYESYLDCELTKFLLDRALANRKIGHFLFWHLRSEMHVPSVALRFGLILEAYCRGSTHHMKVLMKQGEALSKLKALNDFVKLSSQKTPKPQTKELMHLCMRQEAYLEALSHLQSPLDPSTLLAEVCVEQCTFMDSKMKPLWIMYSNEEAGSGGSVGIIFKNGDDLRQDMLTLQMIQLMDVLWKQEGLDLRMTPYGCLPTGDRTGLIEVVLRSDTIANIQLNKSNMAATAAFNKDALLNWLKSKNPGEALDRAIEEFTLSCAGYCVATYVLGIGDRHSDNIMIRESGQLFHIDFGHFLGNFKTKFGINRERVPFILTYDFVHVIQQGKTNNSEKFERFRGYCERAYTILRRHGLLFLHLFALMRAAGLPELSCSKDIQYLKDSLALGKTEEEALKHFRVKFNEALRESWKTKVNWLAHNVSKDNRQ

For the compound `O=Cc1ccc(N2CCOCC2)cc1O`, the IC50 – broadly, the concentration that inhibits the measured activity by half – against PIK3CB is 2.8 µM.
On to `Cc1cccc(CNc2cc(C)cn3c(=O)cc(N4CCOCC4)nc23)c1`, for which the concentration for half-maximal inhibition (IC50) on PIK3CB worked out at 0.99 µM; at PIK3CD, 0.39 µM; on PIK3CG, 25 µM; at PIK3CA, 1.8 µM.
In turn, `O=C(c1ccccc1)c1ccc(N2CCOCC2)cc1O` showed a half-inhibitory concentration (IC50) against PIK3CB of 3.7 µM. In other words, the single-digit micromolar range.
With `Cc1cc(NCc2ccccc2C)c2nc(N3CCOCC3)cc(=O)n2c1`, the IC50 against PIK3CB was 0.11 µM.
As for `CC(=O)c1ccc(N2CCOCC2)cc1O`, the concentration for an effect of 80% (IC80) – broadly, the point of the concentration-response curve where the effect stands at 80% – against PIK3CB was 0.99 µM. Moreover, the 50% inhibitory concentration (IC50) at PIK3CD was found to be 3.8 µM; against PIK3CG it was 10 µM; at PIK3CA, 16 µM.
For the compound `Cc1cc(Br)c2nc(N3CCOCC3)cc(=O)n2c1`, the half-maximal inhibitory concentration (IC50) against PIK3CB is 9.9 µM; against PIK3CD, 8.5 µM; on PIK3CG, above 100 µM; against PIK3CA, 58 µM.
For the compound `O=c1cc(N2CCOCC2)oc2ccccc12`, the IC50 against PIK3CB worked out at 7.5 µM; at PIK3CD, 13 µM; on PIK3CG, 100 µM; against PIK3CA, 45 µM.
On to `O=C(CCl)c1ccc(N2CCOCC2)cc1O`, for which the IC50 at PIK3CD is 4.8 µM; on PIK3CG it was 70 µM; on PIK3CA, 30 µM.
In turn, `O=c1cc(N2CCOCC2)oc2c(-c3ccccc3)cccc12` returned an IC50 against PIK3CD of 6 µM.
Take `Nc1cc(N2CCOCC2)ccc1[N+](=O)[O-]`: the IC50 is 23 µM on PIK3CB, 24 µM at PIK3CD, 100 µM against PIK3CG and 100 µM on PIK3CA.
In the case of `Cc1cc(-c2cccc(N)c2)c2nc(N3CCOCC3)cc(=O)n2c1`, the half-maximal inhibitory concentration (IC50) against PIK3CB came out at 18 µM; against PIK3CD, 6.9 µM; at PIK3CG it was 38 µM; against PIK3CA it was 14 µM.
For the compound `Cc1ccccc1Oc1cccc2c(=O)cc(N3CCOCC3)[nH]c12`, the IC50 at PIK3CB is 0.13 µM; on PIK3CD, 0.63 µM; on PIK3CG, 100 µM; at PIK3CA, 61 µM.
Consider `Cc1cc(Nc2ccccc2C)c2nc(N3CCOCC3)cc(=O)n2c1`, for which the half-inhibitory concentration (IC50) against PIK3CB was 3.3 µM; against PIK3CD it was 3.8 µM; on PIK3CG it was above 100 µM; on PIK3CA it was 9 µM.
For `Cc1cc(Nc2ccc(C)c(C)c2)c2nc(N3CCOCC3)cc(=O)n2c1` the same measures were 14 µM, 5 µM, above 100 µM and 10 µM.
In the case of `COc1ccccc1Nc1cc(C)cn2c(=O)cc(N3CCOCC3)nc12`, the IC50 was 20 µM on PIK3CB, 10 µM against PIK3CD, above 100 µM on PIK3CG and 50 µM against PIK3CA.
Regarding `Cc1cc(NCc2ccccc2)c2nc(N3CCOCC3)cc(=O)n2c1`, the IC50 is 0.16 µM against PIK3CB, 0.15 µM against PIK3CD, 10 µM against PIK3CG and 8.1 µM at PIK3CA.
For `Cc1cc(Nc2cccc(C)c2C)c2nc(N3CCOCC3)cc(=O)n2c1` the same measures were 3.5 µM, 3.3 µM, 100 µM and 6.2 µM.

Source of the values: the Kinase Knowledgebase extract (Sharma et al. 2016).
